Target: T1, EED (Homo sapiens, UniProt O75530)
T1 construct: 2×10^5 Hela cells were injected into a 12-well plate; endogenous in cells; host or cells: HeLa
Assay: EED Proteolytic Activity Evaluation 2 (western blot, Hela cells)
Assay type: cell-based
Details: 1 nM, 10 nM, 100 nM and 1000 nM, 20 hours of treatment
Description: [Experiment 2] EED Proteolytic Activity Evaluation 2
In order to evaluate the EED proteolytic activity of the compound according to the present invention, an experiment was conducted as follows.
Specifically, 2×10^5 Hela cells were injected into a 12-well plate, and after 8 hours of stabilization, each well was treated with the example compounds to have final concentrations of 1 nM, 10 nM, 100 nM, and 1000 nM. One well was treated with the volume of DMSO contained in the sample corresponding to the highest concentration in the experimental group. After 20 hours of treatment, the cells were collected and lysed using 80 μl of SDS Lysis buffer (50 mM Tris pH8.0, 1% SDS, 1 mM EDTA, 0.5 mM PMSF, and protease inhibitor cocktail) and then sonication (30 sec on/59 sec off), 5 cycles) to prepare a cell lysate, followed by protein quantification through BCA, followed by Western blot, and the results are shown in Table 3. (Maximum EED degradation rate: A: >50%, B: 25-50%, C: <25%)

T1 sequence (O75530 whole entry): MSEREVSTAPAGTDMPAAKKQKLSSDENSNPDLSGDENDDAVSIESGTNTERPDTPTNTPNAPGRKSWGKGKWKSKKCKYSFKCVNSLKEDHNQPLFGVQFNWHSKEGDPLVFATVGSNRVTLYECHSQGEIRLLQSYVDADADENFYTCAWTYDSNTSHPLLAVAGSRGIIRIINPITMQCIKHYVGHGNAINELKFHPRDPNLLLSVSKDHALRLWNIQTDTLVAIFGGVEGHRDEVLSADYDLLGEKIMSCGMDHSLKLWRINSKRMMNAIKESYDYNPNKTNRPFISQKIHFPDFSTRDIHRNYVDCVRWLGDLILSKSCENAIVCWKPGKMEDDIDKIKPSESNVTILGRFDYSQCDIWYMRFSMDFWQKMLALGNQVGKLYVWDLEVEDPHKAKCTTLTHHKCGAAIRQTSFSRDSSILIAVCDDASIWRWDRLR

EED degradation rate (Maximum EED degradation rate)	SMILES
A (A: >50%)	Cc1cccc(F)c1CN1C[C@H](c2ccc(N3CCN(C(=O)COCCOCCOCCNC(=O)CNc4ccc5c(c4)C(=O)N(C4CCC(=O)NC4=O)C5=O)CC3)cc2)[C@@H](N(C)C)C1 (stereo partly drawn) [Example 122, N-(2-(2-(2-(2-(4-(4-((3S,4R)-4-(dimethylamino)-1-(2-fluoro-6-methylbenzyl)pyrrolidin-3-yl)phenyl)piperazin-1-yl)-2-oxoethoxy)ethoxy)ethoxy)ethyl)-2-((2-(2,6-dioxopiperidin-3-yl)-1,3-dioxoisoindolin-5-yl)amino)acetamide]
A (A: >50%)	Cc1cccc(F)c1CN1C[C@H](c2ccc(N3CCN(CCC4CCN(C(=O)COc5ccc6c(c5)C(=O)N(C5CCC(=O)NC5=O)C6=O)CC4)CC3)cc2)[C@@H](N(C)C)C1 (stereo partly drawn) [Example 150, 5-(2-(4-(2-(4-(4-((3S,4R)-4-(dimethylamino)-1-(2-fluoro-6-methylbenzyl)pyrrolidin-3-yl)phenyl)piperazin-1-yl)ethyl)piperidin-1-yl)-2-oxoethoxy)-2-(2,6-dioxopiperidin-3-yl)isoindolin-1,3-dione]

— patent publication US20220105188A1, “TARGET PROTEIN EED DEGRADATION-INDUCING DEGRADUCER, PREPARATION METHOD THEREOF, AND PHARMACEUTICAL COMPOSITION FOR PREVENTING OR TREATING DISEASES RELATED TO EED, EZH2, OR PRC2, COMPRISING SAME AS ACTIVE INGREDIENT” (KOREA RESEARCH INSTITUTE OF CHEMICAL TECHNOLOGY, priority 2019, published 2022)
